Like-named read-outs stand apart in the source and are kept apart here.
Assays:
[1] = CYP450 metabolic stability, mouse liver microsomes; format: in vitro ADME; conditions: 1 h incubation; for CYP450 metabolic stability, Mouse, percent of remaining: 5 μM in liver microsomes; for CYPs (50 μM), percentage remaining: C inhib=50 μM in mouse liver microsomes
[2] = CYP450 metabolic stability, primate liver microsomes; format: in vitro ADME; conditions: 5 μM in liver microsomes, 1 h incubation
FAAH [3] = molecular target: T1, FAAH (Mus musculus, UniProt O08914); assay: In vivo FAAH inhibition, liver, after oral administration to mice; conditions: for in vivo FAAH inhibitory activity, liver: 0.1 mg kg^−1, mouse, p.o., text b31; for time of maximum inhibitory effect in the liver: 0.1 mg kg^−1 p.o., mice, post-dose; for ED50 / inhibition at 0.1 mg/kg: mouse, po; for ED50: 8 h, read-out: ED50 liver FAAH
T1 sequence (O08914 1-579): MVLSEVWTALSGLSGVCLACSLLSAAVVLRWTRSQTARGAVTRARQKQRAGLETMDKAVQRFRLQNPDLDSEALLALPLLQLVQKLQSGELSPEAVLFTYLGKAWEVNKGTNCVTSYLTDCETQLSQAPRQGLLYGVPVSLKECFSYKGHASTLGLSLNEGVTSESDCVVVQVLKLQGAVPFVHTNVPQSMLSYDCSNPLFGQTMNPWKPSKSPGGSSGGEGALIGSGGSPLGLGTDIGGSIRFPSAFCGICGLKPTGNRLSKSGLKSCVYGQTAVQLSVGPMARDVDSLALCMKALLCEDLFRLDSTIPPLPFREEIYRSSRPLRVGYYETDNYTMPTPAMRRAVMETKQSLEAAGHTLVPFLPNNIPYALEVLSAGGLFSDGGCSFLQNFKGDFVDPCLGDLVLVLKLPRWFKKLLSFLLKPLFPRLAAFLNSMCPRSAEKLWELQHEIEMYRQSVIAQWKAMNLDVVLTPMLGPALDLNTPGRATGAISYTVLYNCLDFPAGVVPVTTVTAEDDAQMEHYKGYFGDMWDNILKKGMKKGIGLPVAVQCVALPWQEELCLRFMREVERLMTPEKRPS

carboxylesterases (CEs) = assay: CE activity in rat liver microsomes; format: biochemical; conditions: for CEs (10 μM), percent of control: 10 μM in rat liver microsomes; for selectivity over CEs: text b31; for CEs activity, percent of control: C inhib=10 μM in rat liver microsomes, Table 2
[4] = CYP450 metabolic stability, rat liver microsomes; format: in vitro ADME; conditions: 5 μM in liver microsomes, 1 h incubation
[5] = CYP450 metabolic stability, human liver microsomes; format: in vitro ADME; conditions: 5 μM in liver microsomes, 1 h incubation
MAGL = molecular target: T2, MAGL (Rattus norvegicus, UniProt Q8R431); assay: MAGL activity in rat cerebellum cytosol; format: biochemical; conditions: for MAGL (100 μM), percent of control / MAGL activity, percent of control: C inhib=100 μM in rat cerebellum cytosol; for selectivity over MAGL: text b31; for MAGL activity, percent of control: Table 2
T2 sequence (Q8R431 1-303): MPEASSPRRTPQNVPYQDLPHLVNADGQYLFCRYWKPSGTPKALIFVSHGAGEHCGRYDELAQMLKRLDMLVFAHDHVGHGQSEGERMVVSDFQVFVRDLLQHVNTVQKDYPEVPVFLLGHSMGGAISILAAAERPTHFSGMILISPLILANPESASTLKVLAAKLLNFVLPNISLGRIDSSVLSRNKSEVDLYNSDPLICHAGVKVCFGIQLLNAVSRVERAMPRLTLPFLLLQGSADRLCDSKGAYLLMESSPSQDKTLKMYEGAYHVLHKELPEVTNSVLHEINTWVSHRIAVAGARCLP

FAAH [6] = molecular target: T3, FAAH (Rattus norvegicus, UniProt P97612); assay: In vitro FAAH activity in rat brain homogenates/membranes; format: biochemical; conditions: rat brain homogenates, 15 min pre-incubation
T3 sequence (P97612 1-579): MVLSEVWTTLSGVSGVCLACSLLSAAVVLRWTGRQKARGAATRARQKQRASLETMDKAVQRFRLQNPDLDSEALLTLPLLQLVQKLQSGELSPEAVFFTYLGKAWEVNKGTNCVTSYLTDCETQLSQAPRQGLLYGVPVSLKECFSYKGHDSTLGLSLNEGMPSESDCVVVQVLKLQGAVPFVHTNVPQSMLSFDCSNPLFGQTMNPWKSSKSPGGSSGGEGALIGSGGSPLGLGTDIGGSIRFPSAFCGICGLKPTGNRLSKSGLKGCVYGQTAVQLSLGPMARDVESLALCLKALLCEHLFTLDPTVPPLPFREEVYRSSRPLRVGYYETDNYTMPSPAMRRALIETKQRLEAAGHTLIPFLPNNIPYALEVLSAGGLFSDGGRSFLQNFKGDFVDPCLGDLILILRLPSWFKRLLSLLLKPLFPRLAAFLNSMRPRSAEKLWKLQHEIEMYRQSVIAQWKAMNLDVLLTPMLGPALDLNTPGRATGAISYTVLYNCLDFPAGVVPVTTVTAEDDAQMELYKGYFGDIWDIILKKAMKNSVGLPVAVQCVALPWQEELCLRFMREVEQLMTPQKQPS

[7] = CYP450 metabolic stability, dog liver microsomes; format: in vitro ADME; conditions: 5 μM in liver microsomes, 1 h incubation
FAAH [8] = molecular target: T1, FAAH; assay: In vivo FAAH inhibition, brain, after oral administration to mice; conditions: for in vivo FAAH inhibitory activity, brain: text b31; for time of maximal inhibitory effect in the brain (t max): post-dose; for ED50 cerebral FAAH: 0.001 to 3 mg kg^−1, 8 h post-administration
[9] = 0.1 mg kg^−1 p.o. in mice, 8 h after administration, Table 5
[10] = 30 mg kg^−1 p.o. in mice, 1 h after administration, Table 2
[11] = 0.1 mg kg^−1 p.o. in mice, 8 h after administration, Table 4

SMILES: CN(C(=O)n1cnc(-c2ccccc2)c1)C1CCN(Cc2ccccc2)CC1 [Compound 8 h]
- CYP450 metabolic stability, Mouse, percent of remaining [1]: 62±0% of remaining
- CYP450 metabolic stability, Primate, percent of remaining [2]: 41±3% of remaining
- in vivo FAAH inhibitory activity, liver (FAAH [3]): > 90 % of control
- Liver FAAH activity, percent of control (FAAH [3]; [9]): 10±2% of control
- time of maximum inhibitory effect in the liver (FAAH [3]): 1 h
- ED50 (FAAH [3]): 0.028 mg/kg
- inhibition at 0.1 mg/kg (FAAH [3]; read-out: peripheral (liver) FAAH inhibition): > 90%
- CEs (10 μM), percent of control (carboxylesterases (CEs); Table 5): 97±8% of control
- selectivity over CEs (carboxylesterases (CEs)): > 80 % of control
- CYP450 metabolic stability, Rat, percent of remaining [4]: 88±6% of remaining
- CYP450 metabolic stability, Human, percent of remaining [5]: 75±4% of remaining
- MAGL (100 μM), percent of control (MAGL; Table 5): 92±8% of control
- selectivity over MAGL (MAGL): > 80 % of control
- FAAH activity, percent of control, 100 nM (FAAH [6]; Table 5): 41±7% of control
- CYP450 metabolic stability, Dog, percent of remaining [7]: 54±0% of remaining
- cerebral (brain) FAAH inhibition (FAAH [8]; 0.1 mg kg^−1, mouse, p.o., 8 h post-dose): over 90%
- in vivo FAAH inhibitory activity, brain (FAAH [8]; 0.1 mg kg^−1, mouse, p.o.): > 90 % of control
- Brain FAAH activity, percent of control (FAAH [8]; [9]): 11±4% of control
- time of maximal inhibitory effect in the brain (t max) (FAAH [8]; 0.1 mg kg^−1 p.o., mice): 8 h
- central FAAH inhibition maintained up to 48 h post-administration (FAAH [8]; 0.1 mg kg^−1 p.o., mice, up to 48 h): > 50%
- ED50 cerebral FAAH (FAAH [8]; mice, p.o.): approximately 79 μg kg^−1

SMILES: CN(Cc1ccccc1)C(=O)n1nnc2ccccc21 [Compound 10 f]
- Liver FAAH activity, percent of control (FAAH [3]; [10]): 6±2% of control
- CEs activity, percent of control (carboxylesterases (CEs)): 24±1% of control
- MAGL activity, percent of control (MAGL): 2±2% of control
- FAAH activity, percent of control, 10 nM (FAAH [6]; Table 2): 0±0% of control
- FAAH activity, percent of control, 100 nM (FAAH [6]; Table 2): 0±0% of control
- Brain FAAH activity, percent of control (FAAH [8]; [10]): 1±0% of control

SMILES: O=C(N1CCC(Cc2ccccc2)CC1)n1nnc2ccccc21 [Compound 10 h]
- Liver FAAH activity, percent of control (FAAH [3]; [10]): 6±1% of control
- CEs activity, percent of control (carboxylesterases (CEs)): 24±2% of control
- MAGL activity, percent of control (MAGL): 7±5% of control
- FAAH activity, percent of control, 10 nM (FAAH [6]; Table 2): 0±0% of control
- FAAH activity, percent of control, 100 nM (FAAH [6]; Table 2): 0±0% of control
- Brain FAAH activity, percent of control (FAAH [8]; [10]): 8±1% of control

SMILES: Cl.O=C(N1CCN(Cc2ccccc2)CC1)n1nnc2ccccc21 [Compound 10 i]
- Liver FAAH activity, percent of control (FAAH [3]; [10]): 15±4% of control
- CEs activity, percent of control (carboxylesterases (CEs)): 27±1% of control
- MAGL activity, percent of control (MAGL): 7±4% of control
- FAAH activity, percent of control, 10 nM (FAAH [6]; Table 2): 0±0% of control
- FAAH activity, percent of control, 100 nM (FAAH [6]; Table 2): 0±0% of control
- Brain FAAH activity, percent of control (FAAH [8]; [10]): 20±5% of control

SMILES: O=C(N1CCN(c2ccccc2)CC1)n1nnc2ccccc21 [Compound 10 j]
- Liver FAAH activity, percent of control (FAAH [3]; [10]): 30±5% of control
- CEs activity, percent of control (carboxylesterases (CEs)): 28±2% of control
- MAGL activity, percent of control (MAGL): 12±4% of control
- FAAH activity, percent of control, 10 nM (FAAH [6]; Table 2): 1±0% of control
- FAAH activity, percent of control, 100 nM (FAAH [6]; Table 2): 0±0% of control
- Brain FAAH activity, percent of control (FAAH [8]; [10]): 88±7% of control

SMILES: CN(C(=O)n1nnc2ccccc21)C1CCCCC1 [Compound 10 k]
- Liver FAAH activity, percent of control (FAAH [3]; [10]): 1±0% of control
- CEs activity, percent of control (carboxylesterases (CEs)): 30±1% of control
- MAGL activity, percent of control (MAGL): 73±3% of control
- FAAH activity, percent of control, 10 nM (FAAH [6]; Table 2): 1±0% of control
- FAAH activity, percent of control, 100 nM (FAAH [6]; Table 2): 1±2% of control
- Brain FAAH activity, percent of control (FAAH [8]; [10]): 0±0% of control

SMILES: CC1(C)COCN1C(=O)n1nnc2ccc(Br)cc21 [Compound 11 b, (6‐Bromo‐1H‐benzo[d][1,2,3]triazol‐1‐yl)(4,4‐dimethyloxazolidin‐3‐yl)methanone]
- CYPs (50 μM), percentage remaining [1]: 8±2 percentage remaining
- Liver FAAH activity, percent of control (FAAH [3]; [11]): 16±6% of control
- CEs (10 μM), percent of control (carboxylesterases (CEs); Table 4): 73±9% of control
- MAGL (100 μM), percent of control (MAGL; Table 4): 67±12% of control
- Brain FAAH activity, percent of control (FAAH [8]; [11]): 77±29% of control

SMILES: CC1(C)COCN1C(=O)n1nnc2ccc(-c3ccccc3)cc21 [Compound 11 d, (4,4‐Dimethyloxazolidin‐3‐yl)(6‐phenyl‐1H‐benzo[d][1,2,3]triazol‐1‐yl)methanone]
- CYPs (50 μM), percentage remaining [1]: 73±2 percentage remaining
- Liver FAAH activity, percent of control (FAAH [3]; [11]): 54±6% of control
- CEs (10 μM), percent of control (carboxylesterases (CEs); Table 4): 92±2% of control
- Brain FAAH activity, percent of control (FAAH [8]; [11]): 76±18% of control

SMILES: CC1(C)COCN1C(=O)n1nnc2cc(C(N)=O)ccc21 [Compound 11 h, 1‐(4,4‐Dimethyloxazolidine‐3‐carbonyl)‐1H‐benzo[d][1,2,3]triazole‐5‐carboxamide]
- CYP450 metabolic stability, Mouse, percent of remaining [1]: 87±9% of remaining
- CYPs (50 μM), percentage remaining [1]: 67±2 percentage remaining
- CYP450 metabolic stability, Primate, percent of remaining [2]: 57±3% of remaining
- in vivo FAAH inhibitory activity, liver (FAAH [3]): > 90 % of control
- Liver FAAH activity, percent of control (FAAH [3]; [11]): 6±1% of control
- time of maximum inhibitory effect in the liver (FAAH [3]): 1 h
- ED50 (FAAH [3]): 0.007 mg/kg
- inhibition at 0.1 mg/kg (FAAH [3]; read-out: peripheral inhibition of FAAH sustained over the next 7 h): > 90%
- CEs (10 μM), percent of control (carboxylesterases (CEs); Table 4): 81±7% of control
- selectivity over CEs (carboxylesterases (CEs)): > 80 % of control
- CYP450 metabolic stability, Rat, percent of remaining [4]: 87±0% of remaining
- CYP450 metabolic stability, Human, percent of remaining [5]: 96±8% of remaining
- MAGL (100 μM), percent of control (MAGL; Table 4): 96±2% of control
- selectivity over MAGL (MAGL): > 80 % of control
- CYP450 metabolic stability, Dog, percent of remaining [7]: 101±6% of remaining
- in vivo FAAH inhibitory activity, brain (FAAH [8]; 0.1 mg kg^−1, mouse, p.o.): > 90 % of control
- Brain FAAH activity, percent of control (FAAH [8]; [11]): 6±1% of control
- time of maximal inhibitory effect in the brain (t max) (FAAH [8]; 0.1 mg kg^−1 p.o., mice): 1 h
- ED50 cerebral FAAH (FAAH [8]; mice, p.o.): 0.014 mg/kg

Source: paper PMC6582431 (Chemmedchem, 2018)
